Results on three compounds are retold here after ChEMBL document CHEMBL1201862, “PubChem BioAssay data set” (2004).

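Tested at 5 concentrations; 48 h exposure; 96-well plates; endpoints linearly interpolated, else capped at highest concentration. Here, GI50 denotes the concentration required for 50% inhibition of growth.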 Calls of active or inactive are those of the source. Rule as the data show it: active = GI50 up to about 1.1 µM and inactive = higher. Bounds are passed on as bounds.

Common to all, as to assay: NCI anticancer screen, dose series, 48 h
For assay [1], the system named is A498.
The subject of assay [2] is SR.
The subject of assay [3] is KM12.
The test system of assay [4] is SK-MEL-28.
Assay [5] has as its system MDA-MB-231.
The subject of assay [6] is NCI-H522.
Assay [7] concerns UO-31.
Assay [8] relates to Hs-578T.
The subject of assay [9] is SF-295.
Assay [10] concerns EKVX.
Assay [11] concerns IGROV-1.
The subject of assay [12] is COLO 205.
Assay [13] deals with RPMI-8226.
In assay [14] the test system is 786-0.
Assay [15] deals with K562.
The subject of assay [16] is A549.
The subject of assay [17] is OVCAR-8.
Assay [18] relates to HCT-15.
In assay [19] the test system is TK-10.
The subject of assay [20] is OVCAR-4.

As to `Cn1c2ccc(C3=NCCN3)cc2c2cc(C3=NCCN3)ccc21`, the GI50 was > 100 µM (inactive) in [1]; 18.2 µM (inactive) in assay [2]; 1.56 µM (inactive) in assay [3]; 24 µM (inactive) in assay [4]; 41.2 µM (inactive) in [5]; 0.0775 µM (active) in [6]. The GI50 is 56.1 µM (inactive) in assay [7]; 10.7 µM (inactive) in assay [8]; 42.8 µM (inactive) in assay [9]; 17 µM (inactive) in [10]; 24.5 µM (inactive) in assay [11]; 0.724 µM (active) in assay [12]. Also, the GI50 in assay [13] is 24.6 µM (inactive); in assay [14] it was 38.7 µM (inactive); in [15], 26.4 µM (inactive); in assay [16] it was 46.1 µM (inactive); in assay [17] it was 28.9 µM (inactive); in assay [18], more than 100 µM. For the same compound, the GI50 in assay [19] was 60.3 µM (inactive); in assay [20] it was 13.6 µM (inactive).
`O=C1CC(Sc2nc3ccc(I)cc3c(=O)n2Cc2ccccc2)C(=O)NN1` (stereo not given): the GI50 in assay [1] is 12.7 µM (inactive); in assay [2], 2.73 µM (inactive); in assay [3], 17.2 µM (inactive); in [4] it was 17.9 µM (inactive); in assay [5], 15.6 µM (inactive); in assay [6], 1.94 µM (inactive). For the same compound, the GI50 in assay [7] is 0.55 µM (active); in assay [8], 18.5 µM (inactive); in assay [9], 18.2 µM (inactive); in assay [10] it was 15.8 µM (inactive); in [11], 11.8 µM (inactive); in assay [12] it was 19.1 µM (inactive). The GI50 in assay [13] is 17 µM (inactive); in assay [14], 15.1 µM (inactive); in [15], 11.6 µM (inactive); in assay [16], 28.4 µM (inactive); in assay [17], 14.4 µM (inactive); in assay [18], 15.5 µM. For the same compound, the GI50 is 16.8 µM (inactive) in assay [19] and 17.4 µM (inactive) in [20].
With `O=P(O)(NCCCl)NCCCl` [PALIFOSFAMIDE], the GI50 in assay [1] is > 100 µM (inactive); in assay [2] it was 4.95 µM (inactive); in assay [3], > 10 µM (inactive); in assay [4], > 100 µM (inactive); in assay [5], > 100 µM (inactive); in assay [6], > 100 µM (inactive). In addition, the GI50 in assay [7] is > 100 µM (inactive); in assay [8] it was > 100 µM (inactive); in assay [9] it was 54.1 µM (inactive); in assay [10], > 10 µM (inactive); in assay [11] it was > 100 µM (inactive); in assay [12] it was > 100 µM (inactive). Also, the GI50 was > 89.5 µM (inactive) in assay [13]; > 67.8 µM (inactive) in assay [14]; > 100 µM (inactive) in [15]; 81.5 µM (inactive) in [16]; > 10 µM (inactive) in [17]; more than 10 µM in [18]. Also, the GI50 in assay [19] was > 10 µM (inactive); in [20], > 100 µM (inactive).
